# System: rats
# Experiment: not given
# Details: background, reference 14; cited from earlier work
row,SMILES,reversal of SN-38-related epithelial cell death and severe diarrhea from CPT-11
1,"O=C1OC(C(O)C(=O)O)C(O)C1O (stereo not shown) [saccharic acid 1,4-lactone]",partially reversed

# Target: E. coli β-glucuronidase (Escherichia coli (strain K12), UniProt P05804)
# Experiment: β-Glucuronidase assay (4MUG hydrolysis, fluorescence)
# Format: biochemical
# Details: Table 1; compounds from 35,000 compound diversity set library; 50 pM enzyme, 125 uM 4MUG; read-out: IC50, β-Glucuronidase Inhibitory activity of phenoxythiophene sulfonamides
row,SMILES,IC50
1,COc1ccc2ccc(Oc3ccc([S+](=O)([O-])NCc4cccc5ccccc45)s3)cc2c1 [BRITE-354458],175 µM
2,O=[S+]([O-])(NCc1cccc2ccccc12)c1ccc(Oc2ccc3c(c2)CCCC3)s1 [BRITE-355030],149 µM
3,O=[S+]([O-])(NCc1cccc2ccccc12)c1ccc(Oc2ccc(OCc3ccccc3)cc2)s1 [BRITE-355169],153 µM
4,O=[S+]([O-])(NCc1cccc2ccccc12)c1cc(Cl)c(Oc2cccc(-c3ccccc3)c2)s1 [BRITE-355180],102 µM
5,COc1cccc(OC)c1Oc1sc([S+](=O)([O-])NCc2cccc3ccccc23)cc1Cl [BRITE-355201],202 µM
6,O=[S+]([O-])(NCc1cccc2ccccc12)c1cc(Cl)c(Oc2cccnc2)s1 [BRITE-355211],192 µM
7,Cc1cc(Oc2sc([S+](=O)([O-])NCc3cccc4ccccc34)cc2Cl)cc(C(C)C)c1 [BRITE-355214],135 µM
8,CCCOc1ccc(Oc2sc([S+](=O)([O-])NCc3cccc4ccccc34)cc2Cl)cc1 [BRITE-355221],402 µM
9,O=[S+]([O-])(NCc1cccc2ccccc12)c1cc(Cl)c(Oc2ccc3c(c2)OCO3)s1 [BRITE-355233],376 µM
10,Cc1cc(C)cc(Oc2sc([S+](=O)([O-])NCc3cccc4ccccc34)cc2Cl)c1 [BRITE-355234],152 µM
11,O=[S+]([O-])(NCc1cccc2ccccc12)c1cc(Cl)c(Oc2ccc3c(c2)CCCC3)s1 [BRITE-355244],123 µM
12,O=[S+]([O-])(NCc1cccc2ccccc12)c1cc(Cl)c(Oc2ccccc2)s1 [BRITE-355253],444 µM
